From the supplement of paper PMC10920090 come the findings set out here.

In test [1] the test system is MDA-MB-231. Description: drug sensitivity score (DSS), cytotoxicity CellTox Green; higher = more cytotoxic; extreme values may be limits of the assay. The conditions noted are these: 72 h.
Test [2] has as its system MDA-MB-231. Description: drug sensitivity score (DSS), cell viability CellTiter-Glo; higher = more sensitive; extreme values may be limits of the assay. The conditions noted are these: 72 h. A general note: In ATP-based viability assays light output follows the ATP content of the culture.
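Throughout, for drug sensitivity score (DSS), cytotoxicity CellTox Green: DSS summarises each dose–response curve by combining IC50, EC50, maximal inhibition and efficacy across drug concentrations.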

As to `N[C@@H]1CCCN(c2c(/C=C3\SC(=O)NC3=O)cccc2-c2ccccc2)C1` [AZD1208], the drug sensitivity score with MDA-MB-231 [1] (shRNA: shPPFIA1_1), in the test on MDA-MB-231 [1] (shRNA: shScramble), with MDA-MB-231 [2] (shRNA: shPPFIA1_1) and in the test on MDA-MB-231 [2] (shRNA: shScramble) was 0 DSS in each case.

With `Cc1cc(Nc2nc(N[C@@H](C)c3ncc(F)cn3)ncc2Cl)[nH]n1` [AZD1480], the drug sensitivity score with MDA-MB-231 [1] (shRNA: shPPFIA1_1), in the test with MDA-MB-231 [1] (shRNA: shScramble), in the test with MDA-MB-231 [2] (shRNA: shPPFIA1_1) and in the test on MDA-MB-231 [2] (shRNA: shScramble) was 0 DSS throughout.

As to `CNC(=O)c1cccc(-c2ccc3c(N4CCOC[C@@H]4C)nc(N4CCOC[C@@H]4C)nc3n2)c1` [AZD2014], the drug sensitivity score in the test on MDA-MB-231 [1] (shRNA: shPPFIA1_1) worked out at 0 DSS; in the test on MDA-MB-231 [1] (shRNA: shScramble), 0.5 DSS; in the test on MDA-MB-231 [2] (shRNA: shPPFIA1_1), 0 DSS; in the test with MDA-MB-231 [2] (shRNA: shScramble), 7.9 DSS.

In the case of `COc1cc(CCc2cc(NC(=O)c3ccc(N4CC(C)NC(C)C4)cc3)n[nH]2)cc(OC)c1` (centres undefined) [AZD4547], the drug sensitivity score in the test with MDA-MB-231 [1] (shRNA: shPPFIA1_1), with MDA-MB-231 [1] (shRNA: shScramble), with MDA-MB-231 [2] (shRNA: shPPFIA1_1) and in the test on MDA-MB-231 [2] (shRNA: shScramble) was 0 DSS each time.

`CN(C)C(=O)c1ccc(S(=O)(=O)c2ccc(NC(=O)[C@@](C)(O)C(F)(F)F)c(Cl)c2)cc1` [AZD7545]: the drug sensitivity score in the test with MDA-MB-231 [1] (shRNA: shPPFIA1_1) was determined as 0 DSS; with MDA-MB-231 [1] (shRNA: shScramble), 0 DSS; in the test with MDA-MB-231 [2] (shRNA: shPPFIA1_1) it was 3.6 DSS; in the test with MDA-MB-231 [2] (shRNA: shScramble), 0 DSS.

As to `NC(=O)Nc1cc(-c2cccc(F)c2)sc1C(=O)N[C@H]1CCCNC1` [AZD7762], the drug sensitivity score with MDA-MB-231 [1] (shRNA: shPPFIA1_1) stood at 2.8 DSS; with MDA-MB-231 [1] (shRNA: shScramble) it was 0.1 DSS; with MDA-MB-231 [2] (shRNA: shPPFIA1_1) it was 4.5 DSS; in the test with MDA-MB-231 [2] (shRNA: shScramble), 5.7 DSS.

For the compound `COc1ccc(-c2ccc3c(N4CCOC[C@@H]4C)nc(N4CCOC[C@@H]4C)nc3n2)cc1CO` [AZD8055], the drug sensitivity score with MDA-MB-231 [1] (shRNA: shPPFIA1_1) was determined as 0 DSS; in the test with MDA-MB-231 [1] (shRNA: shScramble), 0 DSS; in the test on MDA-MB-231 [2] (shRNA: shPPFIA1_1) it was 2.3 DSS; in the test with MDA-MB-231 [2] (shRNA: shScramble), 9.6 DSS.

Consider `N#Cc1ccc2[nH]c(O)c(-c3ccc(CN4CCOCC4)cn3)c2c1` [AZD-1080], for which the drug sensitivity score in the test on MDA-MB-231 [1] (shRNA: shPPFIA1_1), in the test with MDA-MB-231 [1] (shRNA: shScramble), in the test with MDA-MB-231 [2] (shRNA: shPPFIA1_1) and with MDA-MB-231 [2] (shRNA: shScramble) was 0 DSS each time.

In the case of `Cc1ncc(-c2ccnc(Nc3ccc(S(C)(=O)=O)cc3)n2)n1C(C)C` [AZD-5438], the drug sensitivity score in the test on MDA-MB-231 [1] (shRNA: shPPFIA1_1) amounted to 2.7 DSS; in the test with MDA-MB-231 [1] (shRNA: shScramble) it was 0.5 DSS; in the test with MDA-MB-231 [2] (shRNA: shPPFIA1_1), 0.1 DSS; with MDA-MB-231 [2] (shRNA: shScramble), 2.3 DSS.

As to `C[C@@H](Nc1cc(F)cc(F)c1)c1cc(C(=O)N(C)C)cc2c(=O)cc(N3CCOCC3)oc12` [AZD-8186], the drug sensitivity score in the test on MDA-MB-231 [1] (shRNA: shPPFIA1_1) stood at 0 DSS; with MDA-MB-231 [1] (shRNA: shScramble), 0 DSS; in the test on MDA-MB-231 [2] (shRNA: shPPFIA1_1), 0 DSS; in the test on MDA-MB-231 [2] (shRNA: shScramble), 1.7 DSS.

Turning to `CCN1CCN(Cc2ccc(Nc3ncc(F)c(-c4cc(F)c5nc(C)n(C(C)C)c5c4)n3)nc2)CC1` [Abemaciclib], the drug sensitivity score in the test with MDA-MB-231 [1] (shRNA: shPPFIA1_1) came to 0.9 DSS; in the test on MDA-MB-231 [1] (shRNA: shScramble), 0 DSS; with MDA-MB-231 [2] (shRNA: shPPFIA1_1) it was 0.9 DSS; with MDA-MB-231 [2] (shRNA: shScramble), 0 DSS.

Consider `CN(C)Cc1c(C(=O)NCCOc2ccc(C(=O)NO)cc2)oc2ccccc12` [Abexinostat], for which the drug sensitivity score in the test on MDA-MB-231 [1] (shRNA: shPPFIA1_1) worked out at 16.6 DSS; in the test on MDA-MB-231 [1] (shRNA: shScramble), 10.4 DSS; with MDA-MB-231 [2] (shRNA: shPPFIA1_1), 3.4 DSS; in the test on MDA-MB-231 [2] (shRNA: shScramble) it was 12.2 DSS.

For the compound `C[C@]12CC[C@H](O)CC1=CC[C@@H]1[C@@H]2CC[C@]2(C)C(c3cccnc3)=CC[C@@H]12` [Abiraterone], the drug sensitivity score with MDA-MB-231 [1] (shRNA: shPPFIA1_1) was 0 DSS; in the test on MDA-MB-231 [1] (shRNA: shScramble), 0 DSS; with MDA-MB-231 [2] (shRNA: shPPFIA1_1) it was 0 DSS; in the test on MDA-MB-231 [2] (shRNA: shScramble), 0.9 DSS.

Regarding `Cn1ncc(Cl)c1-c1cc(C(=O)N[C@H](CN)Cc2cccc(F)c2)sc1Cl` [Afuresertib], the drug sensitivity score is 0 DSS with MDA-MB-231 [1] (shRNA: shPPFIA1_1), 0 DSS with MDA-MB-231 [1] (shRNA: shScramble), 0.5 DSS in the test on MDA-MB-231 [2] (shRNA: shPPFIA1_1) and 1.6 DSS in the test on MDA-MB-231 [2] (shRNA: shScramble).

As for `COc1cccc2c1C(=O)c1c(O)c3c(c(O)c1C2=O)C[C@@](O)(/C(CO)=N/NC(=O)CCCCCN1C(=O)C=CC1=O)C[C@@H]3O[C@H]1C[C@H](N)[C@H](O)[C@H](C)O1` [Aldoxorubicin], the drug sensitivity score in the test with MDA-MB-231 [1] (shRNA: shPPFIA1_1) is 0 DSS; with MDA-MB-231 [1] (shRNA: shScramble) it was 0 DSS; in the test with MDA-MB-231 [2] (shRNA: shPPFIA1_1), 1.2 DSS; with MDA-MB-231 [2] (shRNA: shScramble) it was 7.3 DSS.

Turning to `CCc1cc2c(cc1N1CCC(N3CCOCC3)CC1)C(C)(C)c1[nH]c3cc(C#N)ccc3c1C2=O` [Alectinib], the drug sensitivity score amounted to 0 DSS in the test on MDA-MB-231 [1] (shRNA: shPPFIA1_1), 0 DSS with MDA-MB-231 [1] (shRNA: shScramble), 0 DSS with MDA-MB-231 [2] (shRNA: shPPFIA1_1) and 0.4 DSS in the test with MDA-MB-231 [2] (shRNA: shScramble).

On to `COc1cc(Nc2ncc3c(n2)-c2ccc(Cl)cc2C(c2c(F)cccc2OC)=NC3)ccc1C(=O)O` [Alisertib], for which the drug sensitivity score was 0.7 DSS in the test on MDA-MB-231 [1] (shRNA: shPPFIA1_1), 0 DSS in the test with MDA-MB-231 [1] (shRNA: shScramble), 0.8 DSS with MDA-MB-231 [2] (shRNA: shPPFIA1_1) and 0.1 DSS in the test on MDA-MB-231 [2] (shRNA: shScramble).

Take `Oc1ncnc2[nH]ncc12` [Allopurinol]: the drug sensitivity score in the test on MDA-MB-231 [1] (shRNA: shPPFIA1_1), with MDA-MB-231 [1] (shRNA: shScramble), with MDA-MB-231 [2] (shRNA: shPPFIA1_1) and in the test on MDA-MB-231 [2] (shRNA: shScramble) was 0 DSS in each case.

Consider `Cc1nc(NC(=O)N2CCC[C@H]2C(N)=O)sc1-c1ccnc(C(C)(C)C(F)(F)F)c1` [Alpelisib], for which the drug sensitivity score with MDA-MB-231 [1] (shRNA: shPPFIA1_1) came to 0 DSS; with MDA-MB-231 [1] (shRNA: shScramble), 0 DSS; in the test on MDA-MB-231 [2] (shRNA: shPPFIA1_1), 1.5 DSS; with MDA-MB-231 [2] (shRNA: shScramble) it was 0 DSS.

As to `CN(C)c1nc(N(C)C)nc(N(C)C)n1` [Altretamine], the drug sensitivity score in the test with MDA-MB-231 [1] (shRNA: shPPFIA1_1), in the test on MDA-MB-231 [1] (shRNA: shScramble), in the test with MDA-MB-231 [2] (shRNA: shPPFIA1_1) and in the test with MDA-MB-231 [2] (shRNA: shScramble) was 0 DSS each time.

In the case of `CO[C@H]1/C=C\C=C(/C)C(=O)NC2=CC(=O)C(NCCN(C)C)=C(C[C@@H](C)C[C@H](OC)[C@H](O)[C@@H](C)/C=C(\C)[C@@H]1OC(N)=O)C2=O` [Alvespimycin], the drug sensitivity score with MDA-MB-231 [1] (shRNA: shPPFIA1_1) came to 0 DSS; in the test with MDA-MB-231 [1] (shRNA: shScramble), 0.6 DSS; in the test with MDA-MB-231 [2] (shRNA: shPPFIA1_1), 4.8 DSS; in the test with MDA-MB-231 [2] (shRNA: shScramble), 7.2 DSS.

On to `CN1CC[C@H](c2c(O)cc(O)c3c(=O)cc(-c4ccccc4Cl)oc23)[C@H](O)C1` [Alvocidib], for which the drug sensitivity score in the test on MDA-MB-231 [1] (shRNA: shPPFIA1_1) was 11.9 DSS; with MDA-MB-231 [1] (shRNA: shScramble), 7.4 DSS; in the test with MDA-MB-231 [2] (shRNA: shPPFIA1_1), 10.6 DSS; with MDA-MB-231 [2] (shRNA: shScramble) it was 15.2 DSS.

On to `CCC1(c2ccc(N)cc2)CCC(=O)NC1=O` (centres undefined) [Aminoglutethimide], for which the drug sensitivity score in the test on MDA-MB-231 [1] (shRNA: shPPFIA1_1), with MDA-MB-231 [1] (shRNA: shScramble), in the test with MDA-MB-231 [2] (shRNA: shPPFIA1_1) and with MDA-MB-231 [2] (shRNA: shScramble) was 0 DSS throughout.

In the case of `CN(C)CCN1C(=O)c2cccc3cc(N)cc(c23)C1=O` [Amonafide], the drug sensitivity score with MDA-MB-231 [1] (shRNA: shPPFIA1_1) worked out at 1 DSS; with MDA-MB-231 [1] (shRNA: shScramble) it was 2.5 DSS; in the test with MDA-MB-231 [2] (shRNA: shPPFIA1_1) it was 3.5 DSS; in the test on MDA-MB-231 [2] (shRNA: shScramble) it was 8.2 DSS.

`COc1cc(NS(C)(=O)=O)ccc1Nc1c2ccccc2nc2ccccc12` [Amsacrine]: the drug sensitivity score was 2 DSS in the test on MDA-MB-231 [1] (shRNA: shPPFIA1_1), 7.4 DSS in the test with MDA-MB-231 [1] (shRNA: shScramble), 4.8 DSS with MDA-MB-231 [2] (shRNA: shPPFIA1_1) and 8.6 DSS in the test on MDA-MB-231 [2] (shRNA: shScramble).

`S=C(NCc1ccc2c(c1)OCO2)N1CCN(c2ncnc3c2oc2ccccc23)CC1` [Amuvatinib]: the drug sensitivity score with MDA-MB-231 [1] (shRNA: shPPFIA1_1) was 5.5 DSS; in the test on MDA-MB-231 [1] (shRNA: shScramble), 0 DSS; in the test on MDA-MB-231 [2] (shRNA: shPPFIA1_1), 0.6 DSS; in the test with MDA-MB-231 [2] (shRNA: shScramble) it was 1.8 DSS.
